Data on one compound can be found in patent publication US7435724B2, “Degradation-resistant mononucleoside phosphate compounds” (Inspire Pharmaceutical, Inc., priority 2002, dated 2008).

This assay relates to whole blood platelet aggregation. Kind of assay: Platelet aggregation assay, whole blood (ADP-induced, impedance mode). As to conditions: Homo sapiens, read-out: PLATELET DATA IC50 Whole Blood, inhibition of aggregation by maximally effective ADP, whole blood diluted 1:1 with saline. Format: cell-based, human (healthy volunteers). How it is done:
Blood was collected from healthy volunteers into syringes containing ⅙final blood volume of anti-coagulant ACD (65 mM citric acid, 85 mM sodium citrate, 110 mM dextrose) for washed platelet (WP) preparation or into a syringe containing a final concentration of 10 units/mL heparin or 300 μM PPACK for whole blood (WB) assays. The blood collected for whole blood assays was maintained at room temperature and immediately tested as described below. The blood collected for WP) was centrifuged at 180 g for 15 minutes and the supernatant (platelet rich plasma) was removed. […] Platelet aggregation was measured using the optical mode of a ChronoLog aggregometer (Havertown, Pa.). […] A maximally effective concentration of ADP (typically a concentration that produces between 90 and 100 percent of the maximal response) was added to the sample and aggregation was monitored for 8 minutes. […]
The potency of agonists and inhibitors of platelet aggregation was calculated from both, the rate of aggregation and the maximal extent of aggregation obtained for each determination by fitting the data to a four-parameter logistic equation using the GraphPad software package (GraphPad Corp. San Diego, Calif.).

In the case of `CCNC(=O)Nc1ncnc2c1ncn2[C@@H]1O[C@H](COP(=O)(O)OC)C2O[C@H](/C=C/c3ccccc3)O[C@@H]21` (stereo partly drawn) [Compound 217, 2′,3′-(trans)-O-methylenestyryl-5′-(methylphosphate)-N^6-ethylaminocarbonyl-adenosine], the IC50 turned out to be 2500 nM.

In general, IC50 refers to the concentration needed to halve the response being measured.
